Measurements as given in US20260308185A1, “STAT DEGRADERS AND USES THEREOF” (Recludix Pharma, Inc., priority 2023, published 2026).
pIC50: −log10 of the molar value.

System: pSTAT6 (pY641-STAT6) in PBMC
Assay: MSD-pSTAT-PBMC Assay (pSTAT6)
Format: cell-based
Settings: compound 3 hrs, then 1 ng/mL IL-4 for 10 min
Text: Cryopreserved Peripheral Blood Mononuclear Cells (PBMC) are from AllCells. Recombinant Human […] and IL-6 are from Peprotech. Mouse monoclonal anti-STAT3 antibody, rabbit monoclonal anti-pY705-STAT3 antibody, rabbit monoclonal Anti-pY641-STAT6 antibody, and lysis buffer are from Cell Signaling Technology (CST). Mouse monoclonal anti-STAT6 antibody is from BioLegend. Assay plates, blocker, and anti-rabbit secondary antibody are from Meso Scale Discovery (MSD).
Cryopreserved PBMCs were thawed out and allowed to recover overnight in IMDM+10% heat-inactivated FBS prior to plating 50,000 (STAT3) or 25,000 (STAT6) cells per well in 96-well U-bottom tissue culture plates. Cells were treated with compound for 3 hrs, then stimulated with 10 ng/mL IL-6 (STAT3) or 1 ng/mL IL-4 (STAT6) for 10 min. Cells were then spun down and washed with ice-cold PBS prior to lysing the cell pellet with 1× lysis buffer (CST) with 1× HALT protease and phosphatase inhibitor cocktail (Thermo). Lysates were transferred to and incubated overnight at 4° C. with shaking in QuickPlex 96-well high bind assay plates (MSD) pre-coated overnight with 30 μL per well of 0.6 μg/mL mouse monoclonal anti-STAT3 antibody (STAT3) or 2 μg/mL mouse monoclonal anti-STAT6 antibody (STAT6) in 1×PBS, and pre-blocked for 1 hour with 3% Blocker-A (MSD). Captured protein in the assay plates were then washed and probed with 25 μL per well of 0.25 μg/ml rabbit monoclonal anti-pY705-STAT3 antibody (STAT3) or 0.18 μg/ml rabbit monoclonal Anti-pY641-STAT6 antibody (STAT6) in 1% Blocker-A for 1 hour at room temperature with shaking, then washed and probed with 25 ul per well of 1 ug/ml Sulfo-TAG Labeled Goat Anti-Rabbit Antibody (MSD) in 1% Blocker-A for 1 hour at room temperature with shaking. Assay plates were then washed and 150 μL of 1× Read Buffer-T (MSD) was added to each well prior to reading on an SQ120 MSD Plate Reader. Assay signal from each sample was subtracted by the signal from unstimulated control wells and normalized to DMSO control wells, IC50 values were calculated using Graph Pad Prism Dose-Response Nonlinear Regression with variable slope. For both pSTAT3 and pSTAT6 A=≤100 nM; B=>100-1000 nM; C=>1000-3000 nM; and D=>3 μM.

Compound | pIC50
CCCC(=O)SCCOP(=O)(OCCSC(=O)CCC)C(F)(F)c1ccc2sc(C(=O)NC3CC4CC4CC4CCC(C(=O)N5CC(C#N)C(c6cccc(OCCCCCC#Cc7cccc8c7CN(C7CCC(=O)NC7=O)C8=O)c6)C5)N4C3=O)cc2c1 [Compound 8, S,S′-(((((2-(((3S,6S,7aS,8aR,9aR)-3-((rel-3S,4R)-3-cyano-4-(3-((7-(2-(2,6-dioxopiperidin-3-yl)-1-oxoisoindolin-4-yl)hept-6-yn-1-yl)oxy)phenyl)pyrrolidine-1-carbonyl)-5-oxodecahydro-1H-cyclopropa[d]pyrrolo[1,2-a]azocin-6-yl)carbamoyl)benzo[b]thiophen-5-yl)difluoromethyl)phosphoryl)bis(oxy))bis(ethane-2,1-diyl)) dibutanethioate] | > 7.00
CCCC(=O)SCCOP(=O)(OCCSC(=O)CCC)C(F)(F)c1ccc2sc(C(=O)NC3CC4CC4CC4CCC(C(=O)N5CC(c6ccn(CCCCCOc7ccc(C8CCC(=O)NC8=O)cc7)c(=O)c6)CC56CC6)N4C3=O)cc2c1 [Compound 9, S,S′-(((((2-(((3S,6S,7aS,8aR,9aR)-3-((6R)-6-(1-(5-(4-(2,6-dioxopiperidin-3-yl)phenoxy)pentyl)-2-oxo-1,2-dihydropyridin-4-yl)-4-azaspiro[2.4]heptane-4-carbonyl)-5-oxodecahydro-1H-cyclopropa[d]pyrrolo[1,2-a]azocin-6-yl)carbamoyl)benzo[b]thiophen-5-yl)difluoromethyl)phosphoryl)bis(oxy))bis(ethane-2,1-diyl)) dibutanethioate] | > 7.00
CCCC(=O)SCCOP(=O)(OCCSC(=O)CCC)C(F)(F)c1ccc2sc(C(=O)NC3CC4CC4CC4CCC(C(=O)N5CC(c6ccn(CCOCCOCCOc7cccc8c7CN(C7CCC(=O)NC7=O)C8=O)c(=O)c6)CC56CC6)N4C3=O)cc2c1 [Compound 18, S,S′-(((((2-(((3S,6S,7aS,8aR,9aR)-3-((6R)-6-(1-(2-(2-(2-((2-(2,6-dioxopiperidin-3-yl)-1-oxoisoindolin-4-yl)oxy)ethoxy)ethoxy)ethyl)-2-oxo-1,2-dihydropyridin-4-yl)-4-azaspiro[2.4]heptane-4-carbonyl)-5-oxodecahydro-1H-cyclopropa[d]pyrrolo[1,2-a]azocin-6-yl)carbamoyl)benzo[b]thiophen-5-yl)difluoromethyl)phosphoryl)bis(oxy))bis(ethane-2,1-diyl)) dibutanethioate] | 6.00 to 7.00
CCCC(=O)SCCOP(=O)(OCCSC(=O)CCC)C(F)(F)c1ccc2sc(C(=O)NC3CC4CC4CC4CCC(C(=O)N5CC(C#N)C(c6cccc(OCCCCOc7ccc(C8CCC(=O)NC8=O)cc7)c6)C5)N4C3=O)cc2c1 [Compound 4, S,S′-(((((2-(((3S,6S,7aS,8aR,9aR)-3-((rel-3S,4R)-3-cyano-4-(3-(4-(4-(2,6-dioxopiperidin-3-yl)phenoxy)butoxy)phenyl)pyrrolidine-1-carbonyl)-5-oxodecahydro-1H-cyclopropa[d]pyrrolo[1,2-a]azocin-6-yl)carbamoyl)benzo[b]thiophen-5-yl)difluoromethyl)phosphoryl)bis(oxy))bis(ethane-2,1-diyl)) dibutanethioate] | 6.00 to 7.00
CCCC(=O)SCCOP(=O)(OCCSC(=O)CCC)C(F)(F)c1ccc2sc(C(=O)NC3CC4CC4CC4CCC(C(=O)N5CC(c6ccn(CCCCCCC#Cc7cccc8c7CN(C7CCC(=O)NC7=O)C8=O)c(=O)c6)CC56CC6)N4C3=O)cc2c1 [Compound 6, S,S′-(((((2-(((3S,6S,7aS,8aR,9aR)-3-((6R)-6-(1-(8-(2-(2,6-dioxopiperidin-3-yl)-1-oxoisoindolin-4-yl)oct-7-yn-1-yl)-2-oxo-1,2-dihydropyridin-4-yl)-4-azaspiro[2.4]heptane-4-carbonyl)-5-oxodecahydro-1H-cyclopropa[d]pyrrolo[1,2-a]azocin-6-yl)carbamoyl)benzo[b]thiophen-5-yl)difluoromethyl)phosphoryl)bis(oxy))bis(ethane-2,1-diyl)) dibutanethioate] | > 7.00
CCCC(=O)SCCOP(=O)(OCCSC(=O)CCC)C(F)(F)c1ccc2sc(C(=O)NC3CC4CC4CC4CCC(C(=O)N5CC(C#N)C(c6cccc(OCCOCCOc7cccc8c7CN(C7CCC(=O)NC7=O)C8=O)c6)C5)N4C3=O)cc2c1 [Compound 16, S,S′-(((((2-(((3S,6S,7aS,8aR,9aR)-3-((rel-3S,4R)-3-cyano-4-(3-(2-(2-((2-(2,6-dioxopiperidin-3-yl)-1-oxoisoindolin-4-yl)oxy)ethoxy)ethoxy)phenyl)pyrrolidine-1-carbonyl)-5-oxodecahydro-1H-cyclopropa[d]pyrrolo[1,2-a]azocin-6-yl)carbamoyl)benzo[b]thiophen-5-yl)difluoromethyl)phosphoryl)bis(oxy))bis(ethane-2,1-diyl)) dibutanethioate] | > 7.00
CCCC(=O)SCCOP(=O)(OCCSC(=O)CCC)C(F)(F)c1ccc2sc(C(=O)NC3CC4CC4CC4CCC(C(=O)N5CC(c6ccn(C7CCN(c8ccc9c(c8)[nH]c(=O)n9C8CCC(=O)NC8=O)CC7)c(=O)c6)CC56CC6)N4C3=O)cc2c1 [Compound 20, S,S′-(((((2-(((3S,6S,7aS,8aR,9aR)-3-((6R)-6-(1-(1-(1-(2,6-dioxopiperidin-3-yl)-2-oxo-2,3-dihydro-1H-benzo[d]imidazol-5-yl)piperidin-4-yl)-2-oxo-1,2-dihydropyridin-4-yl)-4-azaspiro[2.4]heptane-4-carbonyl)-5-oxodecahydro-1H-cyclopropa[d]pyrrolo[1,2-a]azocin-6-yl)carbamoyl)benzo[b]thiophen-5-yl)difluoromethyl)phosphoryl)bis(oxy))bis(ethane-2,1-diyl)) dibutanethioate] | 6.00 to 7.00
CCCC(=O)SCCOP(=O)(OCCSC(=O)CCC)C(F)(F)c1ccc2sc(C(=O)NC3CC4CC4CC4CCC(C(=O)N5CC(C#N)C(c6cccc(N7CCN(c8ccc9c(c8)[nH]c(=O)n9C8CCC(=O)NC8=O)CC7)c6)C5)N4C3=O)cc2c1 [Compound 14, S,S′-(((((2-(((3S,6S,7aS,8aR,9aR)-3-((rel-3S,4R)-3-cyano-4-(3-(4-(1-(2,6-dioxopiperidin-3-yl)-2-oxo-2,3-dihydro-1H-benzo[d]imidazol-5-yl)piperazin-1-yl)phenyl)pyrrolidine-1-carbonyl)-5-oxodecahydro-1H-cyclopropa[d]pyrrolo[1,2-a]azocin-6-yl)carbamoyl)benzo[b]thiophen-5-yl)difluoromethyl)phosphoryl)bis(oxy))bis(ethane-2,1-diyl)) dibutanethioate] | > 7.00
